Molecules are shown by their SMILES. A value given as a limit tells only on which side of the number the result lay.

The subject of assay [1] is MCR. Put plainly: Antiproliferative activity against human MCR cells after 72 hrs by MTT assay.
The test system of another assay is HeLa. Put plainly: Antiproliferative activity against human HeLa cells after 72 hrs by MTT assay. Format: functional, cell-based. (Tetrazolium dyes change colour on reduction, which living cells bring about.)
Another assay concerns SW-620. The experiment in a line: Antiproliferative activity against human SW620 cells after 72 hrs by MTT assay. Format: functional, cell-based. Conditions: SW-620, 72 h.
A further assay has as its system MCF7. The experiment in a line: Antiproliferative activity against human MCF7 cells after 72 hrs by MTT assay. It is filed as functional, cell-based. The conditions noted are these: MCF7, 72 h.
Assay [2] is described as follows: Antiproliferative activity against human MIAPaCa2 cells after 72 hrs by MTT assay. It is filed as functional, cell-based. The conditions noted are these: MIA PaCa-2, 72 h.
The subject of the next assay is HepG2. Put plainly: Antiproliferative activity against human HepG2 cells after 72 hrs by MTT assay. Format: functional, cell-based. Conditions: HepG2, 72 h.
The test system of the next assay is BJ. Put plainly: Antiproliferative activity against human BJ cells after 72 hrs by PrestoBlue colorimetric assay. It is filed as cell-based.
The subject of the next assay is K562. Put plainly: Antiproliferative activity against apoptosis-resistant, Philadelphia chromosome-positive human K562 cells after 72 hrs by PrestoBlue colorimetric assay. Format: functional, cell-based. Conditions: K562, 72 h.
The test system of the next assay is WI-38. The experiment in a line: Antiproliferative activity against human WI38 cells after 72 hrs by MTT assay. Format: cell-based. The conditions noted are these: Homo sapiens, WI-38, 72 h.
Assay [3] has as its system MCR. Put plainly: Antiproliferative activity against human MCR cells after 72 hrs by MTT assay. Conditions: MCR. It is filed as cell-based.

Usually IC50 stands for the concentration at which inhibition is half-maximal. As to `Cc1c(CC(O)COCc2ccccc2)[nH]c(=O)[nH]c1=O` (stereo unspecified), the IC50 (in the assay on MCR [1]; with HeLa; in the assay with SW-620; in the assay with MCF7; in [2]; in the assay with HepG2) was greater than 100 µM each time.
In assay [2], `COc1nc(CC(O)(COCc2ccccc2)COCc2ccccc2)c(C)c(OC)n1` yielded an IC50 of 6.1 µM.
On to `C[Si](C)(C)CCOCn1c(CC(O)(COCc2ccccc2)COCc2ccccc2)cc(=O)[nH]c1=O`, for which the IC50 (in the assay on MCR [1]; with HeLa; in the assay on SW-620; in the assay with MCF7; in [2]; in the assay with HepG2) was greater than 100 µM in each case.
Take `O=c1cc(CC(COCc2ccccc2)COCc2ccccc2)[nH]c(=O)[nH]1`: the IC50 (with MCR [1]; with HeLa; with SW-620; in the assay with MCF7; in assay [2]; with HepG2) was greater than 100 µM each time.
`COc1cc(CC(O)COCc2ccccc2)nc(OC)n1` (stereo unspecified): the IC50 (in the assay on MCR [1]; in the assay on HeLa; in the assay with SW-620; in the assay on MCF7; in assay [2]; in the assay with HepG2) was greater than 100 µM throughout.
For `C[Si](C)(C)CCOCn1c(CC(O)(CO)CO)cc(=O)[nH]c1=O`, the IC50 (with MCR [1]; with HeLa; in the assay on SW-620; in the assay on MCF7; in [2]; in the assay on HepG2) was greater than 100 µM each time.
For `Cc1c(CC(O)COCc2ccccc2)n(COCC[Si](C)(C)C)c(=O)[nH]c1=O` (stereo unspecified), the IC50 (in the assay on MCR [1]; in the assay with HeLa; with SW-620; with MCF7; in [2]; in the assay with HepG2) was greater than 100 µM each time.
For `C[Si](C)(C)CCOCn1c(CC(O)COCc2ccccc2)cc(=O)[nH]c1=O` (stereo unspecified), the IC50 (in the assay on MCR [1]; with HeLa; in the assay with SW-620; with MCF7; in assay [2]; in the assay with HepG2) was greater than 100 µM throughout.
In the case of `COCn1c(CC(O)CO)c(C)c(=O)[nH]c1=O` (stereo unspecified), the IC50 (in the assay with MCR [1]; in the assay on HeLa; with SW-620; in the assay on MCF7; in assay [2]; with HepG2) was greater than 100 µM throughout.
Regarding `Cc1cn(-c2cc(NC(=O)c3ccc(C)c(Nc4nccc(-c5cccnc5)n4)c3)cc(C(F)(F)F)c2)cn1` [NILOTINIB], the IC50 turned out to be 12.8 µM in the assay with BJ and 2.4 µM in the assay on K562.
For the compound `COCn1c(CC(O)(COCc2ccccc2)COCc2ccccc2)cc(=O)[nH]c1=O`, the IC50 (in the assay on MCR [1]; in the assay with HeLa; in the assay with SW-620; in the assay with MCF7; in assay [2]; with HepG2) was greater than 100 µM throughout.
For the compound `C[Si](C)(C)CCOCn1c(CC(O)CO)cc(=O)[nH]c1=O` (stereo unspecified), the IC50 (with MCR [1]; with HeLa; with SW-620; in the assay on MCF7; in assay [2]; with HepG2) was greater than 100 µM throughout.
On to `COCn1c(=O)[nH]c(CC(COCc2ccccc2)COCc2ccccc2)c(C)c1=O`, for which the IC50 came to 17 µM in the assay with HeLa; 25.6 µM in the assay with SW-620; 19.4 µM in the assay with WI-38; 21.6 µM with MCF7; 27.3 µM in assay [2].
Turning to `COc1cc(CC(O)(COCc2ccccc2)COCc2ccccc2)nc(OC)n1`, the IC50 (in the assay on MCR [1]; with HeLa; in the assay with SW-620; in the assay on MCF7; in assay [2]; in the assay with HepG2) was greater than 100 µM throughout.
Regarding `COCn1c(CC(COCc2ccccc2)COCc2ccccc2)c(C)c(=O)[nH]c1=O`, the IC50 in the assay on HeLa came to 29.7 µM; in the assay on SW-620 it was 72.1 µM; in the assay on WI-38, 30.8 µM; in the assay with MCF7 it was 72.6 µM; in assay [2] it was 55.9 µM.
As to `COc1nc(CC(O)COCc2ccccc2)c(C)c(OC)n1` (stereo unspecified), the IC50 (with HeLa; with MCR [3]; in the assay with SW-620; in the assay on MCF7; in assay [2]; with HepG2) was greater than 100 µM in each case.
On to `COCn1c(CC(COCc2ccccc2)COCc2ccccc2)cc(=O)[nH]c1=O`, for which the IC50 (with MCR [1]; in the assay with HeLa; in the assay on SW-620; in the assay with MCF7; in assay [2]; in the assay with HepG2) was greater than 100 µM throughout.
Take `O=c1cc(CC(O)COCc2ccccc2)[nH]c(=O)[nH]1` (stereo unspecified): the IC50 (in the assay with MCR [1]; in the assay on HeLa; in the assay on SW-620; with MCF7; in assay [2]; with HepG2) was greater than 100 µM each time.
For `O=c1cc(CC(O)(COCc2ccccc2)COCc2ccccc2)[nH]c(=O)[nH]1`, the IC50 (in the assay with MCR [1]; in the assay with HeLa; in the assay on SW-620; in the assay with MCF7; in assay [2]; in the assay on HepG2) was greater than 100 µM each time.
For `COCn1c(CC(O)COCc2ccccc2)c(C)c(=O)[nH]c1=O` (stereo unspecified), the concentration for half-maximal inhibition (IC50) (in the assay with MCR [1]; in the assay with HeLa; with SW-620; in the assay on MCF7; in assay [2]; with HepG2) was greater than 100 µM throughout.
In the case of `Cc1c(CC(O)CO)n(COCC[Si](C)(C)C)c(=O)[nH]c1=O` (stereo unspecified), the IC50 (in the assay on MCR [1]; in the assay on HeLa; in the assay on SW-620; in the assay on MCF7; in assay [2]; in the assay with HepG2) was greater than 100 µM in each case.
`COc1cc(CC(COCc2ccccc2)COCc2ccccc2)nc(OC)n1`: the IC50 was 18.5 µM in the assay with MCR [1]; 3.5 µM in the assay with HeLa; greater than 100 µM in the assay on SW-620; 0.3 µM in the assay with MCF7; 0.3 µM in the assay on HepG2.
Turning to `COCn1c(CC(O)(CO)CO)cc(=O)[nH]c1=O`, the IC50 (with MCR [1]; with HeLa; in the assay with SW-620; in the assay with MCF7; in assay [2]; in the assay with HepG2) was greater than 100 µM throughout.

The record behind these values is ChEMBL document CHEMBL3286303, “Synthesis and in vitro antiproliferative evaluation of novel N-alkylated 6-isobutyl- and propyl pyrimidine derivatives” (Bioorg Med Chem Lett, 2014).
